Reference: patent publication US20110288042A1, “STABLE HIGHLY PURE AZACITIDINE AND PREPARATION METHODS THEREFOR” (CHEMAGIS LTD., priority 2007, published 2011)
Like-named read-outs stand apart in the source and are kept apart here.

Tests used:
[1] = Solution stability of 5-azacytidine in the HPLC diluent; type: physicochemical; settings: for Area (%) at RRT 1.00 (5-azacytidine) / Area (%) of peak at RRT 0.63 / Area (%) of peak at RRT 2.01 / Area (%) of peak at RRT 2.05 / Total impurities by % area: HPLC diluent, about 1.65 mg/ml
Description: (§1) The HPLC measurements were performed using a system equipped with an Inertsil C18 column (ODS-2, 5 microns, 250×4.6 mm (ODS-167)). Other parameters of the system were as follows: • Detection: UV detector operated on 242 nm • Column temperature: 20° C. • Run time: 45 minutes • Injection volume: 10 μl • Flow rate: 1.0 ml/minute • Sample set temperature: 5° C. • Sample concentration: about 1.65 mg/ml • Diluent: Mixture of 30% 10 mM ammonium acetate and 70% THF
(§2) Analyses were performed using the following mobile phase • Mobile Phase (Eluent) A: 10 mM ammonium acetate • Mobile Phase (Eluent) B: 60% 10 mM ammonium acetate, 40% MeOH

[2] = Solution stability of 5-azacytidine in water; type: physicochemical; settings: for Area (%) at RRT 1.00 (5-azacytidine) / Area (%) of peak at RRT 0.63 / Area (%) of peak at RRT 2.01 / Total impurities by % area / Area (%) of peak at RRT 1.70: water, about 1.65 mg/ml
Description: as §1, §2
Samples were withdrawn from the flask every consecutive hour and injected to the HPLC system.

[3] = cited from earlier work

## Nc1ncn([C@@H]2O[C@H](CO)[C@@H](O)[C@H]2O)c(=O)n1 [5-azacytidine, 4-amino-1-β-D-ribofuranosyl-1,3,5-s-triazine-2(1H)-one]
[1]; 0 hours
  Area (%) at RRT 1.00 (5-azacytidine): 96.72%
  Area (%) of peak at RRT 0.63: 1.55%
  Area (%) of peak at RRT 2.01: 1.37%
  Area (%) of peak at RRT 2.05: 0.24%
  Total impurities by % area: 3.28%
[1]; 4 hours
  Area (%) at RRT 1.00 (5-azacytidine): 96.21%
  Area (%) of peak at RRT 0.63: 2.04%
  Area (%) of peak at RRT 2.01: 1.41%
  Area (%) of peak at RRT 2.05: 0.24%
  Total impurities by % area: 3.79%
[1]; 5 hours
  Area (%) at RRT 1.00 (5-azacytidine): 96.11%
  Area (%) of peak at RRT 0.63: 2.16%
  Area (%) of peak at RRT 2.01: 1.37%
  Area (%) of peak at RRT 2.05: 0.24%
  Total impurities by % area: 3.89%
[1]; 6 hours
  Area (%) at RRT 1.00 (5-azacytidine): 96.00%
  Area (%) of peak at RRT 0.63: 2.30%
  Area (%) of peak at RRT 2.01: 1.36%
  Area (%) of peak at RRT 2.05: 0.24%
  Total impurities by % area: 4.00%
[1]; 7 hours
  Area (%) at RRT 1.00 (5-azacytidine): 95.85%
  Area (%) of peak at RRT 0.63: 2.43%
  Area (%) of peak at RRT 2.01: 1.37%
  Area (%) of peak at RRT 2.05: 0.23%
  Total impurities by % area: 4.15%
[1]; 8 hours
  Area (%) at RRT 1.00 (5-azacytidine): 95.74%
  Area (%) of peak at RRT 0.63: 2.55%
  Area (%) of peak at RRT 2.01: 1.37%
  Area (%) of peak at RRT 2.05: 0.24%
  Total impurities by % area: 4.26%
[1]; 9 hours
  Area (%) at RRT 1.00 (5-azacytidine): 95.63%
  Area (%) of peak at RRT 0.63: 2.66%
  Area (%) of peak at RRT 2.01: 1.37%
  Area (%) of peak at RRT 2.05: 0.24%
  Total impurities by % area: 4.37%
[1]; 10 hours
  Area (%) at RRT 1.00 (5-azacytidine): 95.50%
  Area (%) of peak at RRT 0.63: 2.77%
  Area (%) of peak at RRT 2.01: 1.37%
  Area (%) of peak at RRT 2.05: 0.24%
  Total impurities by % area: 4.50%
[1]; 11 hours
  Area (%) at RRT 1.00 (5-azacytidine): 95.40%
  Area (%) of peak at RRT 0.63: 2.87%
  Area (%) of peak at RRT 2.01: 1.37%
  Area (%) of peak at RRT 2.05: 0.24%
  Total impurities by % area: 4.60%
[1]; dissolved in the HPLC diluent
  Solution stability in HPLC diluent: stable within the average time period needed to complete the HPLC method
[2]; in water
  Solution stability in water: unstable in water over prolonged time periods
[2]; 0 hours
  Area (%) at RRT 1.00 (5-azacytidine): 97.47%
  Area (%) of peak at RRT 0.63: 0.64%
  Area (%) of peak at RRT 2.01: 1.59%
  Total impurities by % area: 2.53%
[2]; 1 hour
  Area (%) at RRT 1.00 (5-azacytidine): 95.97%
  Area (%) of peak at RRT 0.63: 2.16%
  Area (%) of peak at RRT 2.01: 1.57%
  Total impurities by % area: 4.03%
[2]; 4 hours
  Area (%) at RRT 1.00 (5-azacytidine): 91.38%
  Area (%) of peak at RRT 0.63: 6.86%
  Area (%) of peak at RRT 2.01: 1.46%
  Total impurities by % area: 8.62%
[2]; 8 hours
  Area (%) at RRT 1.00 (5-azacytidine): 83.61%
  Area (%) of peak at RRT 0.63: 14.68%
  Area (%) of peak at RRT 1.70: 0.23%
  Area (%) of peak at RRT 2.01: 1.36%
  Total impurities by % area: 16.39%
[2]; 12 hours
  Area (%) at RRT 1.00 (5-azacytidine): 77.01%
  Area (%) of peak at RRT 0.63: 21.28%
  Area (%) of peak at RRT 1.70: 0.35%
  Area (%) of peak at RRT 2.01: 1.25%
  Total impurities by % area: 22.99%
[3]; in 5% Tween 80 in water
  Solubility: sparingly soluble
[3]; in 5% dextrose in water
  Solubility: sparingly soluble
